Test results published in PubChem BioAssay AID2060342 (Molecular Pharmacology Branch, DTP, NCI, 2025).
pIC50: −log10 of the molar value.

Test system: 171881-019-R-J1-PDC multicell spheroid viability
Experiment: Anticancer human tumor 171881-019-R-J1-PDC patient-derived invasive breast carcinoma cell line growth inhibition [IpAb]
Settings: for pIC50: curve of first compound; for viability, T/C: stronger effect = lower value
Summary of the method: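 Multi-cell spheroids of 60% tumour cells, 25% HUVEC and 15% MSC in ultra-low-attachment U-bottom wells, treated with agents combined with ipatasertib or abemaciclib. Half-log ranges top out near clinical Cmax, or 10 microM when Cmax is unknown.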

[1] = second compound 0.1 µM, first compound 0.0316 µM
[2] = second compound 0.1 µM, first compound 0.1 µM
[3] = second compound 0.1 µM, first compound 0.316 µM
[4] = second compound 0.1 µM, first compound 1 µM
[5] = second compound 0.316 µM, first compound 0.0316 µM
[6] = second compound 0.316 µM, first compound 0.1 µM
[7] = second compound 0.316 µM, first compound 0.316 µM
[8] = second compound 0.316 µM, first compound 1 µM
[9] = second compound 1 µM, first compound 0.0316 µM
[10] = second compound 1 µM, first compound 0.1 µM
[11] = second compound 1 µM, first compound 0.316 µM
[12] = second compound 1 µM, first compound 1 µM
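Note: spheroids exposed to the agents for seven days before readout.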

## Cn1cnc2c(F)c(Nc3ccc(Br)cc3Cl)c(C(=O)NOCCO)cc21 + CC(C)NCC(C(=O)N1CCN(c2ncnc3c2C(C)CC3O)CC1)c1ccc(Cl)cc1
Second compound 0.1 µM
  pIC50: 6.27
Second compound 0.316 µM
  pIC50: 6.73
Second compound 1 µM
  pIC50: > 8.02
Second compound 3.16 µM
  pIC50: > 8.02
Second compound 10 µM
  pIC50: > 8.02
Second compound 0.1 µM, first compound 0.00949 µM
  viability, T/C: 122%
Second compound 0.1 µM, first compound 0.03 µM
  viability, T/C: 125%
Second compound 0.1 µM, first compound 0.0949 µM
  viability, T/C: 107%
Second compound 0.1 µM, first compound 0.3 µM
  viability, T/C: 75.1%
Second compound 0.1 µM, first compound 0.949 µM
  viability, T/C: 26.3%
Second compound 0.1 µM, first compound 3 µM
  viability, T/C: 8.66%
Second compound 0.316 µM, first compound 0.00949 µM
  viability, T/C: 72.7%
Second compound 0.316 µM, first compound 0.03 µM
  viability, T/C: 69.6%
Second compound 0.316 µM, first compound 0.0949 µM
  viability, T/C: 62.4%
Second compound 0.316 µM, first compound 0.3 µM
  viability, T/C: 41.9%
Second compound 0.316 µM, first compound 0.949 µM
  viability, T/C: 14.2%
Second compound 0.316 µM, first compound 3 µM
  viability, T/C: 4.26%
Second compound 1 µM, first compound 0.00949 µM
  viability, T/C: 24.5%
Second compound 1 µM, first compound 0.03 µM
  viability, T/C: 26.6%
Second compound 1 µM, first compound 0.0949 µM
  viability, T/C: 21.2%
Second compound 1 µM, first compound 0.3 µM
  viability, T/C: 13.3%
Second compound 1 µM, first compound 0.949 µM
  viability, T/C: 4.61%
Second compound 1 µM, first compound 3 µM
  viability, T/C: 1.63%
Second compound 3.16 µM, first compound 0.00949 µM
  viability, T/C: 8.87%
Second compound 3.16 µM, first compound 0.03 µM
  viability, T/C: 7.75%
Second compound 3.16 µM, first compound 0.0949 µM
  viability, T/C: 5.99%
Second compound 3.16 µM, first compound 0.3 µM
  viability, T/C: 5.01%
Second compound 3.16 µM, first compound 0.949 µM
  viability, T/C: 1.73%
Second compound 3.16 µM, first compound 3 µM
  viability, T/C: 0.77%
Second compound 10 µM, first compound 0.00949 µM
  viability, T/C: 5.26%
Second compound 10 µM, first compound 0.03 µM
  viability, T/C: 3.72%
Second compound 10 µM, first compound 0.0949 µM
  viability, T/C: 3.22%
Second compound 10 µM, first compound 0.3 µM
  viability, T/C: 1.9%
Second compound 10 µM, first compound 0.949 µM
  viability, T/C: 1.16%
Second compound 10 µM, first compound 3 µM
  viability, T/C: 0.44%

## COc1c(OCCCN2CCOCC2)ccc2c3n(c(=NC(=O)c4cnc(N)nc4)nc12)CCN3 + CC(C)NCC(C(=O)N1CCN(c2ncnc3c2C(C)CC3O)CC1)c1ccc(Cl)cc1
Second compound 0.1 µM
  pIC50: 7.79
Second compound 0.316 µM
  pIC50: 8.23
Second compound 1 µM
  pIC50: > 8.50
Second compound 3.16 µM
  pIC50: > 8.50
Second compound 10 µM
  pIC50: > 8.50
Second compound 0.1 µM, first compound 0.00316 µM
  viability, T/C: 94.5%
Second compound 0.1 µM, first compound 0.01 µM
  viability, T/C: 68.5%
[1]
  viability, T/C: 25.8%
[2]
  viability, T/C: 3.96%
[3]
  viability, T/C: 1.09%
[4]
  viability, T/C: 1.15%
Second compound 0.316 µM, first compound 0.00316 µM
  viability, T/C: 61.5%
Second compound 0.316 µM, first compound 0.01 µM
  viability, T/C: 40%
[5]
  viability, T/C: 16.9%
[6]
  viability, T/C: 3.36%
[7]
  viability, T/C: 0.91%
[8]
  viability, T/C: 0.95%
Second compound 1 µM, first compound 0.00316 µM
  viability, T/C: 25.2%
Second compound 1 µM, first compound 0.01 µM
  viability, T/C: 15.6%
[9]
  viability, T/C: 8.13%
[10]
  viability, T/C: 2.24%
[11]
  viability, T/C: 0.79%
[12]
  viability, T/C: 1.24%
Second compound 3.16 µM, first compound 0.00316 µM
  viability, T/C: 9.51%
Second compound 3.16 µM, first compound 0.01 µM
  viability, T/C: 6.39%
Second compound 3.16 µM, first compound 0.0316 µM
  viability, T/C: 3.83%
Second compound 3.16 µM, first compound 0.1 µM
  viability, T/C: 1.68%
Second compound 3.16 µM, first compound 0.316 µM
  viability, T/C: 0.83%
Second compound 3.16 µM, first compound 1 µM
  viability, T/C: 0.67%
Second compound 10 µM, first compound 0.00316 µM
  viability, T/C: 5.07%
Second compound 10 µM, first compound 0.01 µM
  viability, T/C: 3.81%
Second compound 10 µM, first compound 0.0316 µM
  viability, T/C: 2.45%
Second compound 10 µM, first compound 0.1 µM
  viability, T/C: 1.59%
Second compound 10 µM, first compound 0.316 µM
  viability, T/C: 0.62%
Second compound 10 µM, first compound 1 µM
  viability, T/C: 0.82%

## C=CCn1c(=O)c2cnc(Nc3ccc(N4CCN(C)CC4)cc3)nc2n1-c1cccc(C(C)(C)O)n1 + CCN1CCN(Cc2ccc(Nc3ncc(F)c(-c4cc(F)c5nc(C)n(C(C)C)c5c4)n3)nc2)CC1
Second compound 0.01 µM
  pIC50: 6.06
Second compound 0.0316 µM
  pIC50: 6.00
Second compound 0.1 µM
  pIC50: 5.78
Second compound 0.316 µM
  pIC50: < 5.00
Second compound 1 µM
  pIC50: < 5.00
Second compound 0.01 µM, first compound 0.0316 µM
  viability, T/C: 88.8%
Second compound 0.01 µM, first compound 0.1 µM
  viability, T/C: 93.3%
Second compound 0.01 µM, first compound 0.316 µM
  viability, T/C: 109%
Second compound 0.01 µM, first compound 1 µM
  viability, T/C: 43.2%
Second compound 0.01 µM, first compound 3.16 µM
  viability, T/C: 30.3%
Second compound 0.01 µM, first compound 10 µM
  viability, T/C: 30.3%
Second compound 0.0316 µM, first compound 0.0316 µM
  viability, T/C: 116%
Second compound 0.0316 µM, first compound 0.1 µM
  viability, T/C: 97.3%
Second compound 0.0316 µM, first compound 0.316 µM
  viability, T/C: 119%
Second compound 0.0316 µM, first compound 1 µM
  viability, T/C: 50%
Second compound 0.0316 µM, first compound 3.16 µM
  viability, T/C: 35%
Second compound 0.0316 µM, first compound 10 µM
  viability, T/C: 32%
[1]
  viability, T/C: 110%
[2]
  viability, T/C: 105%
[3]
  viability, T/C: 126%
[4]
  viability, T/C: 57.9%
Second compound 0.1 µM, first compound 3.16 µM
  viability, T/C: 42.7%
Second compound 0.1 µM, first compound 10 µM
  viability, T/C: 37.2%
[5]
  viability, T/C: 131%
[6]
  viability, T/C: 137%
[7]
  viability, T/C: 134%
[8]
  viability, T/C: 83.1%
Second compound 0.316 µM, first compound 3.16 µM
  viability, T/C: 57.1%
Second compound 0.316 µM, first compound 10 µM
  viability, T/C: 47.7%
[9]
  viability, T/C: 150%
[10]
  viability, T/C: 150%
[11]
  viability, T/C: 149%
[12]
  viability, T/C: 98.8%
Second compound 1 µM, first compound 3.16 µM
  viability, T/C: 78.7%
Second compound 1 µM, first compound 10 µM
  viability, T/C: 69.8%
